Values quoted from earlier work as cited in patent US20180103657A1, “FROZEN CONFECTION” (Conopco, Inc., d/b/a UNILEVER, priority 2015, published 2018).

Details: partition coefficient at 20 degrees centigrade

In the case of CCCC(=O)OCC [Ethyl butyrate], the “Log P [flavour compounds]” value is given as 1.8.
